From patent US20110230493A1, “1-OXA-8-Azaspiro [4,5] Decabe-8-Carboxamide Compounds as FAAH Inhibitors” (Pfizer Inc., priority 2008, published 2011) come the findings set out here.

For test [1], the target named is T1, rat FAAH (Rattus norvegicus, UniProt P97612).
T1 construct: made in house; host or cells: E. coli
T1 sequence (P97612 1-579): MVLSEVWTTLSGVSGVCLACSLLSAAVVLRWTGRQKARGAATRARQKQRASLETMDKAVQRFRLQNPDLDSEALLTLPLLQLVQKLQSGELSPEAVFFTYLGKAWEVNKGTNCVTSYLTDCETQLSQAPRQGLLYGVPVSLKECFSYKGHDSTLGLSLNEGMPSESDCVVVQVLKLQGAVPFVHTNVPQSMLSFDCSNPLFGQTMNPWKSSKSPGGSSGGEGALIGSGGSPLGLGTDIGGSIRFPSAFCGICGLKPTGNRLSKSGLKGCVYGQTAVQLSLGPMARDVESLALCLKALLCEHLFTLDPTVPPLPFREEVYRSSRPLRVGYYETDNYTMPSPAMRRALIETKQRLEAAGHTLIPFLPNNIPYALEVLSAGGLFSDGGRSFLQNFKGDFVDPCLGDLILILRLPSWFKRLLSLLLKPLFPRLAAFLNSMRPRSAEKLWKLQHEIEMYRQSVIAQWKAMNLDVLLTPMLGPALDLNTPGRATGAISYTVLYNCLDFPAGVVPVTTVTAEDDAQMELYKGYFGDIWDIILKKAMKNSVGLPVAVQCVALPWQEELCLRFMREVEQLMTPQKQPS
Description: FAAH assay, rat FAAH enzyme inactivation (kinact/Ki). In kind it is biochemical. The following applies: pH 7.4, in vitro, oleamide 50 μM, 30° C., read-out: rFAAH kinact/Ki. The procedure:
(§1) The FAAH assay was carried out in 384-well clear polystyrene plates (Evergreen Scientific) in a total volume of 50 μl per well in a manner similar to that described by Mileni et al., Proc. Nat. Acad. Sci. 2008, 105, 12820-12824. All percents are by volume. Serial dilutions of compound were initially prepared in 100% DMSO, and then diluted two-fold into HPLC-grade H2O to give 50% DMSO. To each well, was placed the reaction mixture (40 μl) containing 1-4 nM FAAH, 50 mM NaPi, pH 7.4, 3 mM α-ketoglutarate, 0.15 mM NADH, 7.5 U/ml glutamate dehydrogenase, 2 mM ADP, 1 mM EDTA, and 0.1% Triton X-100 (The concentration shown for each component is the final concentration in the assay). To this mixture, was added 5 μl of a compound of Examples 1 to 101 at various concentrations in 50% DMSO (or 5 μl 50% DMSO for controls). This was immediately followed by the addition of 5 μl oleamide (500 μM) dissolved in 75% EtOH/25% DMSO and the reaction mixture was mixed for 1.5 min. The final concentrations of DMSO and EtOH in the assay were each 7.5%. The reactions were incubated at 30° C. and the absorbance at 340 nm was collected over a period of 90 min with readings taken in 30-second intervals using SpectraMax Plus^384 Microplate Spectrophotometer (Molecular Devices, Sunnyvale, Calif.). The human FAAH and rat FAAH used in the assay was prepared as described in the patent application WO 2006/067613 using wild-type E. coli cells transformed in St. Louis, Mo., U.S.A. The purity of the enzyme was greater than 98% based on an analysis by SDS-polyacrylamide gel electrophoresis followed by Coomassie Blue staining.
(§2) Reaction progress curves were corrected for the non-enzymatic oxidation of NADH by subtraction of absorbancies at each time point obtained from control reactions containing no FAAH enzyme. The loss of enzyme activity as a function of time is well-described by the following mathematical equation (1) for a mono-exponential decay: […]
(§3) where At represents the absorbance at time t, A0 represents the absorbance at time zero, and C represents a constant. Observed rates of enzyme inactivation (kobs) were determined from the non-linear reaction progress curves by fitting the corrected absorbancies to an equation for a mono-exponential decay using the third-party Microsoft Excel plug-in, XLfit (IDBS Limited). Secondary plots of kobs vs. inhibitor concentration were prepared from kobs values obtained from progress curves. Second-order rates for enzyme inactivation, expressed as kinact/Ki (M^−1 s^−1), were calculated from the slopes from linear regression analysis of the secondary plot of kobs vs. inhibitor concentration as defined in following equation (2), where [I]<<Ki:
(§4) The concentration of substrate in the assay was equal to the Km for oleamide of 50 μM. Therefore, reported kinact/Ki values are obtained by multiplying resulting slopes by a factor of two (i.e. slope=kinact/(Ki*2)).
(§5) Table 1, below, lists human FAAH (hFAAH) and rat FAAH (rFAAH) enzyme inhibition values for Examples 1-101 as a ratio of kinact/Ki (M^−1 s^−1).

Test [2] deals with T2, human FAAH (Homo sapiens, UniProt O00519).
T2 construct: made in house; host or cells: E. coli
T2 sequence (O00519 1-579): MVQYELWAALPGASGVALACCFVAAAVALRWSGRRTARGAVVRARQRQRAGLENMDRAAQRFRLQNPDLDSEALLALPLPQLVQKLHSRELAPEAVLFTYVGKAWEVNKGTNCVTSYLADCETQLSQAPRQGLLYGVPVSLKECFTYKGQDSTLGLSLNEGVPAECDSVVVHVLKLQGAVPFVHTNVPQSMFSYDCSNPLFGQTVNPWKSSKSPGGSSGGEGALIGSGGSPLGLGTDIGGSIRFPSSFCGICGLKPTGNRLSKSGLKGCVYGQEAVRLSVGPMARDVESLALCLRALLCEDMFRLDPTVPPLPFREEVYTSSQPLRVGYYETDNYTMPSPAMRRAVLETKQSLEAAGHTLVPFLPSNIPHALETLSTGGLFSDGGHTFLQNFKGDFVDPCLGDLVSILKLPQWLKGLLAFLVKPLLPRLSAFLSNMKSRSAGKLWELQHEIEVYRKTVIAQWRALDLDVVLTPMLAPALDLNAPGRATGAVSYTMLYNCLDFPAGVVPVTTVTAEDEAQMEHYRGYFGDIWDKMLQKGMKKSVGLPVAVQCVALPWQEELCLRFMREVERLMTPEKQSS
Nature of the test: FAAH assay, human FAAH enzyme inactivation (kinact/Ki). The following applies: pH 7.4, in vitro, oleamide 50 μM, 30° C., read-out: hFAAH kinact/Ki. In kind it is biochemical. The procedure:
as §1, §2, §3, §4, §5

For the compound `O=C(Nc1cccnn1)N1CCC2(CC1)CC(c1cccc(Oc3ccc(Cl)cn3)c1)CO2` (racemic) [Example 4, (3RS)-3-{3-[(5-chloropyridin-2-yl)oxy]phenyl}-N-pyridazin-3-yl-1-oxa-8-azaspiro[4.5]decane-8-carboxamide], the figures for the kinact/KI in test [1] and in test [2] were 3380 M⁻¹ s⁻¹ and 2910 M⁻¹ s⁻¹, respectively.
As for `O=C(Nc1cccnn1)N1CCC2(CC1)CC(c1cccc(Oc3ccc(Br)cn3)c1)CO2` (racemic) [Example 5, (3RS)-3-{3-[(5-bromopyridin-2-yl)oxy]phenyl}-N-pyridazin-3-yl-1-oxa-8-azaspiro[4.5]decane-8-carboxamide], the values for the kinact/KI in test [1] and in test [2] were 3620 M⁻¹ s⁻¹ and 2660 M⁻¹ s⁻¹, respectively.
The like results for `O=C(Nc1cccnc1)N1CCC2(CC1)CC(c1cccc(Oc3ccc(Br)cn3)c1)CO2` (racemic) [Example 6, (3RS)-3-{3-[(5-bromopyridin-2-yl)oxy]phenyl}-N-pyridin-3-yl-1-oxa-8-azaspiro[4.5]decane-8-carboxamide] were, in that order, 1750 M⁻¹ s⁻¹ and 2320 M⁻¹ s⁻¹.
Regarding `Cc1noc(NC(=O)N2CCC3(CC2)CC(c2cccc(OC(F)(F)F)c2)CO3)c1C` (racemic) [Example 13, (3RS)-N-(3,4-dimethylisoxazol-5-yl)-3-[3-(trifluoromethoxy)phenyl]-1-oxa-8-azaspiro[4.5]decane-8-carboxamide], the kinact/KI in test [1] is 3110 M⁻¹ s⁻¹; in test [2], 1800 M⁻¹ s⁻¹.
For `Cc1noc(NC(=O)N2CCC3(CC2)CC(c2cccc(Cl)c2)CO3)c1C` (racemic) [Example 14, (3RS)-3-(3-chlorophenyl)-N-(3,4-dimethylisoxazol-5-yl)-1-oxa-8-azaspiro[4.5]decane-8-carboxamide] the same measures were 2670 M⁻¹ s⁻¹ and 2040 M⁻¹ s⁻¹.
As for `Cc1noc(NC(=O)N2CCC3(CC2)CC(c2ccc(Cl)c(Cl)c2)CO3)c1C` (racemic) [Example 15, (3RS)-3-(3,4-dichlorophenyl)-N-(3,4-dimethylisoxazol-5-yl)-1-oxa-8-azaspiro[4.5]decane-8-carboxamide], the kinact/KI in test [1] came out at 4360 M⁻¹ s⁻¹; in test [2] it was 2430 M⁻¹ s⁻¹.
On to `Cc1noc(NC(=O)N2CCC3(CC2)CC(c2cc(F)cc(Cl)c2)CO3)c1C` (racemic) [Example 16, (3RS)-3-(3-chloro-5-fluorophenyl)-N-(3,4-dimethylisoxazol-5-yl)-1-oxa-8-azaspiro[4.5]decane-8-carboxamide], for which the kinact/KI is 3590 M⁻¹ s⁻¹ in test [1] and 1990 M⁻¹ s⁻¹ in test [2].
For the compound `Cc1noc(NC(=O)N2CCC3(CC2)CC(c2ccc(OCc4ccc(F)cc4)cc2)CO3)c1C` (racemic) [Example 17, (3RS)-N-(3,4-dimethylisoxazol-5-yl)-3-{4-[(4-fluorobenzyl)oxy]phenyl}-1-oxa-8-azaspiro[4.5]decane-8-carboxamide], the kinact/KI turned out to be 6690 M⁻¹ s⁻¹ in test [1] and 6960 M⁻¹ s⁻¹ in test [2].
For the compound `Cc1noc(NC(=O)N2CCC3(CC2)CC(c2ccc(OCc4ccccc4Cl)c(Cl)c2)CO3)c1C` (racemic) [Example 18, (3RS)-3-{3-chloro-4-[(2-chlorobenzyl)oxy]phenyl}-N-(3,4-dimethylisoxazol-5-yl)-1-oxa-8-azaspiro[4.5]decane-8-carboxamide], the kinact/KI in test [1] was 2840 M⁻¹ s⁻¹; in test [2], 2290 M⁻¹ s⁻¹.
In the case of `Cc1noc(NC(=O)N2CCC3(CC2)CC(c2ccc(OCc4ccc(F)cc4)c(Cl)c2)CO3)c1C` (racemic) [Example 19, (3RS)-3-{3-chloro-4-[(4-fluorobenzyl)oxy]phenyl}-N-(3,4-dimethylisoxazol-5-yl)-1-oxa-8-azaspiro[4.5]decane-8-carboxamide], the figures for the kinact/KI in test [1] and in test [2] were 7120 M⁻¹ s⁻¹ and 6710 M⁻¹ s⁻¹, respectively.
Turning to `Cc1noc(NC(=O)N2CCC3(CC2)CC(c2ccc(OCc4ccccc4)c(Cl)c2)CO3)c1C` (racemic) [Example 20, (3RS)-3-[4-(benzyloxy)-3-chlorophenyl]-N-(3,4-dimethylisoxazol-5-yl)-1-oxa-8-azaspiro[4.5]decane-8-carboxamide], the kinact/KI in test [1] came to 4390 M⁻¹ s⁻¹; in test [2], 3970 M⁻¹ s⁻¹.
With `Cc1noc(NC(=O)N2CCC3(CC2)CC(c2ccc(OCc4cccc(Cl)c4)c(Cl)c2)CO3)c1C` (racemic) [Example 21, (3RS)-3-{3-chloro-4-[(3-chlorobenzyl)oxy]phenyl}-N-(3,4-dimethylisoxazol-5-yl)-1-oxa-8-azaspiro[4.5]decane-8-carboxamide], the kinact/KI in test [1] is 3550 M⁻¹ s⁻¹; in test [2], 3100 M⁻¹ s⁻¹.
Consider `Cc1noc(NC(=O)N2CCC3(CC2)CC(c2ccc(OCc4cccc(F)c4)cc2)CO3)c1C` (racemic) [Example 22, (3RS)-N-(3,4-dimethylisoxazol-5-yl)-3-{4-[(3-fluorobenzyl)oxy]phenyl}-1-oxa-8-azaspiro[4.5]decane-8-carboxamide], for which the kinact/KI in test [1] was found to be 3630 M⁻¹ s⁻¹; in test [2], 6030 M⁻¹ s⁻¹.
Regarding `Cc1noc(NC(=O)N2CCC3(CC2)CC(c2ccc(OCc4ccc(Cl)cc4)cc2)CO3)c1C` (racemic) [Example 23, (3RS)-3-{4-[(4-chlorobenzyl)oxy]phenyl}-N-(3,4-dimethylisoxazol-5-yl)-1-oxa-8-azaspiro[4.5]decane-8-carboxamide], the kinact/KI in test [1] is 10900 M⁻¹ s⁻¹; in test [2], 6950 M⁻¹ s⁻¹.
With `Cc1noc(NC(=O)N2CCC3(CC2)CC(c2ccc4c(c2)OCO4)CO3)c1C` (racemic) [Example 24, (3RS)-3-(1,3-benzodioxol-5-yl)-N-(3,4-dimethylisoxazol-5-yl)-1-oxa-8-azaspiro[4.5]decane-8-carboxamide], the kinact/KI in test [1] was 431 M⁻¹ s⁻¹; in test [2], 788 M⁻¹ s⁻¹.
On to `Cc1noc(NC(=O)N2CCC3(CC2)CC(c2ccc4ccccc4c2)CO3)c1C` (racemic) [Example 25, (3RS)-N-(3,4-dimethylisoxazol-5-yl)-3-(2-naphthyl)-1-oxa-8-azaspiro[4.5]decane-8-carboxamide], for which the kinact/KI in test [1] worked out at 2240 M⁻¹ s⁻¹; in test [2], 2090 M⁻¹ s⁻¹.
The like results for `Cc1noc(NC(=O)N2CCC3(CC2)CC(c2ccc(Cl)c(F)c2)CO3)c1C` (racemic) [Example 26, (3RS)-3-(4-chloro-3-fluorophenyl)-N-(3,4-dimethylisoxazol-5-yl)-1-oxa-8-azaspiro[4.5]decane-8-carboxamide] were, in that order, 2520 M⁻¹ s⁻¹ and 2140 M⁻¹ s⁻¹.
